Data reported in patent US9408393B2, “Bismuth-thiols as antiseptics for agricultural, industrial and other uses” (Microbion Corporation, priority 2010, dated 2016).
Like-named read-outs stand apart in the source and are kept apart here.

Columns and labels:
[1] = system: Bukholderia multivorans; experiment: Single-point BisEDT-antibiotic combination FICI; assay type: cell-based; conditions: Bmult 5665
[2] = system: Burkholderia cepacia; experiment: Single-point BisEDT-antibiotic combination FICI; assay type: cell-based; conditions: Bcep 1756
[3] = system: P. aeruginosa; experiment: Checkerboard broth microdilution MIC and FICI; assay type: cell-based, Pseudomonas aeruginosa; conditions: Pseudomonas aeruginosa, compound alone, read-out: MIC (μg/mL) Alone
Experimental: The effects of combinations of microparticulate Bis-EDT and four Bis-EDT analogs prepared as described above, and other agents against representative strains of several Gram-negative pathogenic bacteria were tested. A modification of a common laboratory method was used to determine synergism (FICI≦0.5), enhancement (0.5<FICI≦1.0), antagonism (FICI>4.0) and indifference (1.0<FICI≦4.0) used fractional inhibitory concentrations (FICs) and FIC indices (FICI) (Eliopoulos G and R Moellering. 1991. Antimicrobial combinations. In Antibiotics in Laboratory Medicine, Third Edition, edited by V Lorian. Williams and Wilkins, Baltimore, Md., pp. 432-492; Odds, 2003 J. Antimicrob. Chemother. 52(1):1). The checkerboard technique was used to determine FIC indices and was employed in this study.
Stock solutions of all test articles were prepared at 40× the final target concentration in the appropriate solvent. […] The final drug concentrations in the FIC assay plates were set to bracket the MIC value of each agent for each test organism, unless the strain was totally resistant to the test agent. […] The test organisms were originally received from clinical sources, or from the American Type Culture Collection. Upon receipt, the isolates were streaked onto Tryptic Soy Agar II (TSA). Colonies were harvested from these plates and a cell suspension was prepared in an appropriate broth growth medium containing cryoprotectant. Aliquots were then frozen at −80° C. The frozen seeds of the organisms to be tested in a given assay were thawed, streaked for isolation onto TSA plates, and incubated at 35° C. All organisms were tested in Mueller Hinton II Broth (Becton Dickinson, Lot No. 9044411). The broth was prepared at 1.05× normal weight/volume to offset the 5% volume of the drugs in the final test plates.
Minimal Inhibitory Concentration (MIC) values were previously determined using the broth microdilution method for aerobic bacteria (Clinical and Laboratory Standards Institute (CLSI). Methods for Dilution Antimicrobial Susceptibility Tests for Bacteria That Grow Aerobically; Approved Standard—Eighth Edition. CLSI document M07-A8 [ISBN 1-56238-689-1]. Clinical and Laboratory Standards Institute, 940 West Valley Road, Suite 1400, Wayne, Pa. 19087-1898 USA, 2009.).
FIC values were determined using a broth microdilution method previously described (Sweeney et al., 2003 Antimicrob. Agents Chemother. 47(6):1902-1906). To prepare the test plates, automated liquid handlers (Multidrop 384, Labsystems, Helsinki, Finland; Biomek 2000 and Multimek 96, Beckman Coulter, Fullerton Calif.) were used to conduct serial dilutions and liquid transfers.
The appropriate wells of standard 96-well microdilution plates (Falcon 3918) were filled with 150 μL of the appropriate solvent in columns 2-12 using the Multidrop 384. Three hundred microliters of each secondary test drug was added to each well in Column 1 of the plates. These plates were used to prepare the drug “mother plates” which provided the serial drug dilutions for the drug combination plates. The Biomek 2000 was used to transfer 150 μL of each secondary drug solution (40×) from the wells in Column 1 of the mother plate and to make eleven 2-fold serial dilutions. Mother plates of Bis-EDT (and analogs) were serial diluted top to bottom by hand, using a multichannel pipette. Two mother plates, one for each secondary drug and one for Bis-EDT (or analogs), were combined to form a “checkerboard” pattern by transfer of equal volumes (using a multi-channel pipette) to the drug combination plate. Row H and Column 12 each contained serial dilutions of one of the agents alone for determination of the MIC.
The “daughter plates” were loaded with 180 μL of test medium using the Multidrop 384. Then, the Multimek 96 was used to transfer 10 μL of drug solution from each well of the drug combination mother plate to each corresponding well of the daughter plate in a single step.

[4] = system: Escherichia coli; experiment: Single-point BisEDT-antibiotic combination FICI; assay type: cell-based
[5] = system: Pseudomonas aeruginosa; experiment: Single-point BisEDT-antibiotic combination FICI; assay type: cell-based; conditions: PA 1380
[6] = system: Klebsiella pneumoniae; experiment: Single-point BisEDT-antibiotic combination FICI; assay type: cell-based; conditions: KP 1231
[7] = system: Acinetobacter baumanii; experiment: Single-point BisEDT-antibiotic combination FICI; assay type: cell-based; conditions: Abau 2594
[8] = system: Enterococcus faecalis; experiment: Single-point BisEDT-antibiotic combination FICI; assay type: cell-based; conditions: E Fc 3121
[9] = system: Staphylococcus aureus (SA, MRSA); experiment: Single-point BisEDT-antibiotic combination FICI; assay type: cell-based
[10] = system: Streptococcus pneumoniae (SP, PRSP); experiment: Single-point BisEDT-antibiotic combination FICI; conditions: PRSP 5348
[11] = system: S. aureus; experiment: Broth dilution MIC/MBC, BT-antibiotic combinations; assay type: cell-based, Staphylococcus aureus
Experimental: Materials & Methods. Susceptibility studies were performed by broth dilution in 96-well tissue culture plates (Nalge Nunc International, Denmark) in accordance with NCCLS protocols (National Committee for Clinical Laboratory Standards. (1997). Methods for Dilution Antimicrobial Susceptibility Tests for Bacteria that Grow Aerobically: Approved Standard M7-A2 and Informational Supplement M100-S10. NCCLS, Wayne, Pa., USA).
Briefly, overnight bacterial cultures were used to prepare 0.5 McFarland standard suspensions, which were further diluted 1:50 (˜2×10^6 cfu/mL) in cation-adjusted Mueller-Hinton broth medium (BBL, Cockeysville, Md., USA). BTs (prepared as described above) and antibiotics were added at incremental concentrations, keeping the final volume constant at 0.2 mL. Cultures were incubated for 24 h at 37° C. and turbidity was assessed by absorption at 630 nm using an ELISA plate reader (Biotek Instruments, Winooski, Vt., USA) according to the manufacturer's recommendations. […] Viable bacterial counts (cfu/mL) were determined by standard plating on nutrient agar.
The checkerboard method was used to assess the activity of antimicrobial combinations. The fractional inhibitory concentration index (FICI) and the fractional bactericidal concentration index (FBCI) were calculated, according to Eliopoulos et al. (Eliopoulos and Moellering, (1996) Antimicrobial combinations. In Antibiotics in Laboratory Medicine (Lorian, V., Ed.), pp. 330-96, Williams and Wilkins, Baltimore, Md., USA). Synergy was defined as an FICI or FBCI index of […], no interaction at >0.5-4 and antagonism at >4 (Odds, F C (2003) Synergy, antagonism, and what the chequerboard puts between them. Journal of Antimicrobial Chemotherapy 52:1). Synergy was also defined conventionally as ≧4-fold decrease in antibiotic concentration.

[12] = MRSA S2446-3, BE = 0.2 μg/ml BisEDT
[13] = S. aureus ATCC 25923, BE = 0.2 μg/ml BisEDT

## C[C@H]1[C@H](NC(=O)/C(=N\OC(C)(C)C(=O)O)c2csc(N)n2)C(=O)N1S(=O)(=O)O [Aztreonam]
[1]
  FICI, single-point BisEDT-antibiotic combination: 0.96
[2]
  FICI, single-point BisEDT-antibiotic combination: 0.67
[3]; P. aeruginosa 103
  MIC: 8 µg/mL
[3]; P. aeruginosa 1381
  MIC: 64 µg/mL
[3]; P. aeruginosa 1384
  MIC: 8 µg/mL
[3]; P. aeruginosa 1474
  MIC: 8 µg/mL
[3]; P. aeruginosa 1479
  MIC: 8 µg/mL
[3]; P. aeruginosa 2566
  MIC: 16 µg/mL
[3]; P. aeruginosa 2568
  MIC: 8 µg/mL
[4]; EC 102
  FICI, single-point BisEDT-antibiotic combination: 0.74
[4]; EC 2232
  FICI, single-point BisEDT-antibiotic combination: 1.29
[5]
  FICI, single-point BisEDT-antibiotic combination: 0.55
[6]
  FICI, single-point BisEDT-antibiotic combination: 0.73
[7]
  FICI, single-point BisEDT-antibiotic combination: 0.87

## CO/N=C(\C(=O)N[C@@H]1C(=O)N2C(C(=O)O)=C(COC(N)=O)CS[C@H]12)c1ccco1 [Cefuroxime]
[8]
  FICI, single-point BisEDT-antibiotic combination: 1.11
[9]; MRSA 773
  FICI, single-point BisEDT-antibiotic combination: 4.23
[9]; SA 100
  FICI, single-point BisEDT-antibiotic combination: 1.11
[10]
  FICI, single-point BisEDT-antibiotic combination: 1.03

## O=C(O)c1cn(C2CC2)c2cc(N3CCNCC3)c(F)cc2c1=O [Ciprofloxacin]
[1]
  FICI, single-point BisEDT-antibiotic combination: 2.29
[2]
  FICI, single-point BisEDT-antibiotic combination: 2.23
[4]; EC 102
  FICI, single-point BisEDT-antibiotic combination: 1.14
[5]
  FICI, single-point BisEDT-antibiotic combination: 2.75
[7]
  FICI, single-point BisEDT-antibiotic combination: 1.04

## CC[C@H]1OC(=O)[C@H](C)[C@@H](O[C@H]2C[C@@](C)(OC)[C@@H](O)[C@H](C)O2)[C@H](C)[C@@H](O[C@@H]2O[C@H](C)C[C@H](N(C)C)[C@H]2O)[C@](C)(O)C[C@@H](C)C(=O)[C@H](C)[C@@H](O)[C@]1(C)O [Erythromycin]
[8]
  FICI, single-point BisEDT-antibiotic combination: 0.92
[9]; MRSA 773
  FICI, single-point BisEDT-antibiotic combination: 0.67
[10]
  FICI, single-point BisEDT-antibiotic combination: 1.03

## C[C@H]1COc2c(N3CCN(C)CC3)c(F)cc3c(=O)c(C(=O)O)cn1c23 [Levofloxacin]
[8]
  FICI, single-point BisEDT-antibiotic combination: 1.08
[9]; MRSA 773
  FICI, single-point BisEDT-antibiotic combination: 1.11
[9]; SA 100
  FICI, single-point BisEDT-antibiotic combination: 1.23
[10]
  FICI, single-point BisEDT-antibiotic combination: 0.70

## NC[C@@H]1O[C@H](O[C@H]2[C@@H](O)[C@H](O[C@@H]3[C@@H](O)[C@H](N)C[C@H](N)[C@H]3O[C@H]3O[C@H](CN)[C@@H](O)[C@H](O)[C@H]3N)O[C@@H]2CO)[C@H](N)[C@@H](O)[C@@H]1O [NEO, Neomycin]
[11]; [12]
  Δ: 1.6
[11]; MRSA S2446-3, antibiotic alone
  MIC: 13.400 µg/mL
[11]; MRSA S2446-3, with 0.2 μg/ml BisEDT
  MIC + BE: 8.500 µg/mL
[11]; [13]
  Δ: 2.5
[11]; S. aureus ATCC 25923, antibiotic alone
  MIC: 0.500 µg/mL
[11]; S. aureus ATCC 25923, with 0.2 μg/ml BisEDT
  MIC + BE: 0.200 µg/mL

## Cc1onc(-c2ccccc2)c1C(=O)N[C@@H]1C(=O)N2[C@@H]1SC(C)(C)[C@@H]2C(=O)O [Oxacillin]
[8]
  FICI, single-point BisEDT-antibiotic combination: 0.92
[9]; MRSA 773
  FICI, single-point BisEDT-antibiotic combination: 2.28
[10]
  FICI, single-point BisEDT-antibiotic combination: 1.03

## NC[C@@H]1O[C@H](O[C@H]2[C@@H](O)[C@H](O[C@@H]3[C@@H](O)[C@H](N)C[C@H](N)[C@H]3O[C@H]3O[C@H](CO)[C@@H](O)[C@H](O)[C@H]3N)O[C@@H]2CO)[C@H](N)[C@@H](O)[C@@H]1O [PARO, Paromomycin]
[11]; [12]
  Δ: 1.8
[11]; [13]
  Synergy: + (Synergy was also defined conventionally as ≧4-fold decrease in antibiotic concentration)
  Δ: 5.7
[11]; Staphylococcus aureus, ATCC25923, S. aureus ATCC 25923, antibiotic alone, read-out: MIC
  MIC: 1.08 µg/mL
[11]; Staphylococcus aureus, ATCC25923, S. aureus ATCC 25923, with 0.2 μg/ml BisEDT, read-out: MIC + BE
  MIC: 0.188 µg/mL
[11]; Staphylococcus aureus, MRSA, MRSA S2446-3, antibiotic alone, read-out: MIC
  MIC: 335 µg/mL
[11]; Staphylococcus aureus, MRSA, MRSA S2446-3, with 0.2 μg/ml BisEDT, read-out: MIC + BE
  MIC: 183 µg/mL

## C[C@@H]1O[C@@H]1P(=O)(O)O [Phosphomycin]
[1]
  FICI, single-point BisEDT-antibiotic combination: 1.23
[2]
  FICI, single-point BisEDT-antibiotic combination: 1.29
[8]
  FICI, single-point BisEDT-antibiotic combination: 1.23
[4]; EC 2232
  FICI, single-point BisEDT-antibiotic combination: 1.96
[9]; MRSA 773
  FICI, single-point BisEDT-antibiotic combination: 0.61
[5]
  FICI, single-point BisEDT-antibiotic combination: 1.86
[6]
  FICI, single-point BisEDT-antibiotic combination: 1.02
[7]
  FICI, single-point BisEDT-antibiotic combination: 1.12
[10]
  FICI, single-point BisEDT-antibiotic combination: 1.45
